Data taken from patent publication US20250333745A1, “METHODS AND COMPOSITIONS FOR TREATMENT OF POLYCYSTIC KIDNEY DISEASE” (Regulus Therapeutics Inc., priority 2016, published 2025).

Experiments:
[1] = test system: 18 pro-inflammatory genes; assay: Ex vivo kidney slice assay; format: cell-based; details: rat kidney slice; 24-hour incubation; relative to PBS
Experimental: In in vitro assays, the potential for toxicity was assessed using a biochemical fluorescent binding assay (FBA) and a liver or kidney slice assay. The FBA is performed by incubating a fluorescent dye with each compound, and immediately measuring fluorescence. Highly fluorescent compounds have the potential to produce toxicity in vivo. The liver or kidney slice assay is performed by incubating a slice of tissue from a core liver sample isolated from rat. Following a 24-hour incubation, RNA is extracted from the tissue slice, and the expression levels of 18 pro-inflammatory genes are measured. An induction in pro-inflammatory gene expression indicates a potential for pro-inflammatory effects in vivo.
Ex vivo assays were performed with liver or kidney tissue slices. The liver or kidney slice assay is performed by incubating a slice of tissue from a core liver or kidney sample isolated from rat. Following a 24-hour incubation, RNA is extracted from the tissue slice, and the expression levels of 18 pro-inflammatory genes, including IFIT, are measured. A log 2 transformation of the fold change (Log2-FC) relative to PBS treatment was performed. An induction in pro-inflammatory gene expression indicates a potential for pro-inflammatory effects in vivo.

[2] = In vitro metabolic stability in monkey liver lysate; format: in vitro ADME; details: 24-hour incubation of RG4326
Experimental: (§1) Due to their reduced capacity for serum protein binding, which is a property that drives oligonucleotide distribution in the body, short oligonucleotides are not necessarily expected to have pharmacokinetic properties that make them suitable for use as drugs. RG4326 was incubated in mouse, monkey or human liver homogenate. The identity and concentration of RG4326 and metabolites was determined after a 24-hour incubation. RG4326 and metabolites were extracted using liquid-liquid extraction (LLE) and/or solid-phase extraction (SPE), which were then analyzed for identity and concentration using ion-pairing-reversed-phase high performance liquid chromatography coupled with time-of-flight mass spectrometry (IP—RP-HPLC-TOF).

miR-106b = miR-106b luciferase reporter assay in HeLa cells; format: cell-based; details: anti-miR-17 at 100 nm
Experimental: Additional in vitro assays were conducted to further explore the potency of RG4326. A luciferase reporter assay was used to test the ability of RG4326 to inhibit the miR-17 family members miR-17, miR-20a, miR-93, and miR-106b. A luciferase reporter plasmid for each of miR-20a, miR-93, and miR-106b was constructed, with a fully complementary microRNA binding site in the 3′-UTR of the luciferase gene. HeLa cells were transfected with the microRNA mimic and its cognate luciferase reporter, followed by transfection with anti-miR-17 at a dose of 100 nm. […] As RG4326 is 100% complementary to the other miR-17 family members not tested, miR-20b and […], it is expected to inhibit these microRNAs as well.

[3] = In vitro metabolic stability in mouse liver lysate; format: in vitro ADME; details: 24-hour incubation of RG4326
Experimental: Metabolic stability was evaluated by incubating each anti-miR-17 compound in a mouse liver lysate. After 24 hours, the percentage of intact compound remaining is calculated. Compounds that are not stable following a 24-hour incubation are potentially not stable in vivo.
as §1

Viscosity = format: physicochemical; details: approximately 150 mg/mL in water at 20° C.
Experimental: RG4326 has the following sequence and chemical modification pattern: ASGSCMAFCFUFUMUSGS where nucleosides followed by subscript “M” are 2′-O-methyl nucleosides, nucleosides followed by subscript “F” are 2′-fluoro nucleosides, nucleosides followed by subscript “S” are S-cEt nucleosides, each cytosine is a non-methylated cytosine and all linkages are phosphorothioate linkages. […] Additionally, the viscosity of RG4326 was determined to be 6 cP at a concentration of approximately 150 mg/mL (in water at 20° C.), thus RG4326 in solution is suitable for administration by subcutaneous injection.

[4] = Pharmacokinetic profile after three 10 mg/kg subcutaneous injections in C57BL6 and JCK mice; format: in vivo, mouse; details: three 10 mg/kg s.c.; for % Parent: after 21 days
Experimental: The pharmacokinetic behavior of RG4326 was further characterized in wild type (C57B16) mice and PKD (JCK) mice. Groups of 5 mice each received three 10 mg/kg subcutaneous injections on each of three consecutive days. At one, four, seven, 14 and 21 days after the third and final injection, mice were sacrificed and plasma, kidney and liver samples were collected. For measurement of RG4326, RG4326 was extracted using liquid-liquid extraction (LLE) and/or solid-phase extraction (SPE), which was then analyzed for identity and concentration using ion-pairing-reversed-phase high performance liquid chromatography coupled with time-of-flight mass spectrometry (IP—RP-HPLC-TOF).

Pcy mice = assay: Previous study of tool anti-miR-17 in Pcy mice; format: in vivo, mouse; details: 50 mg/kg once weekly for 26 weeks
Experimental: (§2) Previous studies using a research tool anti-miR-17 compound identified a role for miR-17 in PKD in two different models of PKD, the Pkd2-KO model (also known as the Pkhd1/cre; Pkd2^F/F model) and the Pcy model. The research tool modified oligonucleotide complementary to miR-17 was tested in mouse models of PKD. The anti-miR-17 compound was a fully phosphorothioated oligonucleotide 19 linked nucleosides in length (5′-CTGCACTGTAAGCACTTTG-3′; SEQ ID NO: 7), with DNA, 2′-MOE and S-cEt sugar moieties.
Pcy mice bearing a mutation in Nphp3 spontaneously develop polycystic kidney disease, with a slower progression of disease than that observed in the Pkd2-KO mice. Mice were treated with 50 mg/kg of tool anti-miR-17 compound, or with PBS, once weekly for a total of 26 weeks. The mean ratio of kidney weight to body weight in the Pcy mice treated with anti-miR-17 was 19% lower than the mean ratio of kidney weight to body weight in the Pcy mice administered PBS only (p=0.0003).

[5] = In vivo study of research tool compound (proinflammatory effect)
Experimental: Further, the research tool compound was not sufficiently efficacious for development as a pharmaceutical agent for the treatment of PKD. Accordingly, a screen was performed to identify inhibitors of one or more miR-17 family members that are sufficiently efficacious, convenient to administer, and safe for administration to subjects with PKD. An additional criterion was a sufficiently high kidney-to-liver delivery ratio, to enhance the proportion of anti-miR-17 compound that is delivered to the target organ.

miR-17 family = assay: In vitro assays of tool compound against miR-17 family
Experimental: as §2

COC1C(OP(=O)(S)OC[C@H]2O[C@@H](n3cnc4c(N)ncnc43)C(F)C2OP(=O)(S)OC[C@H]2O[C@@H](n3ccc(N)nc3=O)C(F)C2OP(=O)(S)OC[C@H]2O[C@@H](n3ccc(=O)[nH]c3=O)C(F)C2OP(=O)(S)OC[C@H]2O[C@@H](n3ccc(=O)[nH]c3=O)C(OC)C2OP(=O)(S)OC[C@]23O[C@@H](n4ccc(=O)[nH]c4=O)C(O[C@H]2C)C3OP(=O)(S)OC[C@]23O[C@@H](n4cnc5c(=O)[nH]c(N)nc54)C(O[C@H]2C)C3O)[C@@H](COP(=O)(S)OC2C3O[C@@H](C)[C@]2(COP(=O)(S)OC2C4O[C@@H](C)[C@]2(CO)O[C@H]4n2cnc4c(N)ncnc42)O[C@H]3n2cnc3c(=O)[nH]c(N)nc32)O[C@H]1n1ccc(N)nc1=O (stereo in doubt) [RG4326, ASGSCMAFCFUFUMUSGS]
Ex Vivo Kidney Slices Assay Pro-Inflammatory Signature Score (Log2-FC) [1]: −0.30 ± 0.22 Log2-FC
Ex Vivo Liver Lysate (% Analyte), Monkey [2]: 95.9%
Mean luciferase fold derepression, miR-106b (miR-106b): 17.7
Ex Vivo Liver Lysate (% Analyte), Mouse [3]: 99.1%
viscosity (Viscosity): 6 cP
AUC0-21 days ([4]; Normal C57BL6 mice, Kidney): 282 µg·days/g
C24 h ([4]; Normal C57BL6 mice, Kidney): 61.4 µg/g
% Parent ([4]; Normal C57BL6 mice, Kidney): >90%
AUC0-21 days ([4]; Normal C57BL6 mice, Liver): 17 µg·days/g
C24 h ([4]; Normal C57BL6 mice, Liver): 1.6 µg/g
% Parent ([4]; Normal C57BL6 mice, Liver): >90%
K/L Ratio (AUC) ([4]; Normal C57BL6 mice): 17
K/L Ratio (C24 h) ([4]; Normal C57BL6 mice): 38
AUC0-21 days ([4]; PKD JCK mice, Kidney): 497 µg·days/g
C24 h ([4]; PKD JCK mice, Kidney): 66.5 µg/g
% Parent ([4]; PKD JCK mice, Kidney): >90%
AUC0-21 days ([4]; PKD JCK mice, Liver): 37 µg·days/g
C24 h ([4]; PKD JCK mice, Liver): 5.9 µg/g
% Parent ([4]; PKD JCK mice, Liver): >90%
K/L Ratio (AUC) ([4]; PKD JCK mice): 13
K/L Ratio (C24 h) ([4]; PKD JCK mice): 11
parent compound remaining after 21 days ([4]; both plasma and tissues, C57B16 and JCK mice): over 90%

5′-CTGCACTGTAAGCACTTTG-3′ (all phosphorothioate, sugars by position and methylation of C not given here; DNA, 2'-MOE and S-cEt sugars) [Tool anti-miR-17, reference compound]
mean ratio of kidney weight to body weight lower than PBS only (Pcy mice; p=0.0003): 19%
mean reduction in cyst index compared to PBS only (Pcy mice; p=0.008): 28%
proinflammatory effect (in words) [5]: slightly proinflammatory
inhibition of miR-17 family members (in words) (miR-17 family): hybridizes to and inhibits all members of the miR-17 family
